Measured values reported in the supplement of paper PMC11208160.

Assay: recombinant UMI read abundance after kanamycin selection (control-corrected) (log10(CPM+1)); higher = more efficient recombination; extreme values may be limits of the assay; sequences stand for … in AGTGCAGAGAAAATCGGCCAGTTTTCTCTGCCTGCAGTCCGCATGCCGTGGGACCCCTTGGGTTCTAACCTGTTGCCTAGATTTATGCAGCGGACTGCCTTTCTCCCAAAGTGATAAACCGG…AGGTTGGTTTCACT; site = the 11-nt donor
Summary of the method: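 Sequenced counts of recombinant UMIs were turned into CPM, averaged across replicates and scaled with control-derived factors. The reported figure is log10(CPM+1). Those UMIs, each 12 nt long, tagged donor and donor-binding-loop pairs on a plasmid with a promoterless kanamycin gene, screened as a pool in Escherichia coli with IPTG (0.07 mM) plus kanamycin or without selection.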
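Further: IS621 bridge recombinase in Escherichia coli cells against a fixed T5 target plasmid.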

“GTTAAAACATGGACCGGTTTTCCCGGTAATCCGTATTTGGC (site GTTAAAACTGC)” and “GTTAAAACATGGACCGGTTTTCCCGGTAATCCGTATTTGGC (site GTTACAACTGC)” are the same in “recombinant UMI read abundance (log10)” value: 0 for the first, 0 for the second.

“GTTAAAACATGGACCGGTTTTCCCGGTAATCCGTATTTGGC (site GTTAGAACTGC)” and “GTTAAAACATGGACCGGTTTTCCCGGTAATCCGTATTTGGC (site GTTATAACTGC)” are within 0.2 log units of each other in “recombinant UMI read abundance (log10)” value: 0.02 for the first, 0 for the second.

First: GTTAAATCATGGACCGGTTTTCCCGGTAATCCGTATTTGAA (site GTTAAATCTTT)
Second: GTTAAGGCATGGACCGGTTTTCCCGGTAATCCGTATTTGTC (site GTTAAGGCTGA)
The “recombinant UMI read abundance (log10)” value of the first is lower: 1.62 for the first, 2.82 for the second.

“GTTACACCATGGACCGGTTTTCCCGGTAATCCGTATTTGAA (site GTTACACCTTT)” and “GTTAGAACATGGACCGGTTTTCCCGGTAATCCGTATTTGCC (site GTTAGAACTGA)” are within 0.2 log units of each other in “recombinant UMI read abundance (log10)” value: 0.0186 for the first, 0 for the second.

“GTTAGAACATGGACCGGTTTTCCCGGTAATCCGTATTTGCC (site GTTAGAACTGC)” and “GTTAGAACATGGACCGGTTTTCCCGGTAATCCGTATTTGCC (site GTTAGAACTGG)” are the same in “recombinant UMI read abundance (log10)” value: 0 for the first, 0 for the second.

“GTTAGAACATGGACCGGTTTTCCCGGTAATCCGTATTTGCC (site GTTAGAACTGT)” and “GTTAGAACATGGACCGGTTTTCCCGGTAATCCGTATTTGGG (site GTTAGAACTAC)” are the same in “recombinant UMI read abundance (log10)” value: 0 for the first, 0 for the second.

“GTTAGAACATGGACCGGTTTTCCCGGTAATCCGTATTTGGG (site GTTAGAACTCC)” and “GTTAGAACATGGACCGGTTTTCCCGGTAATCCGTATTTGGG (site GTTAGAACTGC)” are within 0.2 log units of each other in “recombinant UMI read abundance (log10)” value: 0.172 for the first, 0 for the second.

Compared with “GTTAGAACATGGACCGGTTTTCCCGGTAATCCGTATTTGGG (site GTTAGAACTTC)”, “GTTAGAACATGGACCGGTTTTCCCGGTAATCCGTATTTGTC (site GTTAGAACTGA)” is higher in “recombinant UMI read abundance (log10)” value: 0.00779 for the first, 1.52 for the second.

“GTTAGAACATGGACCGGTTTTCCCGGTAATCCGTATTTGTC (site GTTAGAACTGC)” and “GTTAGAACATGGACCGGTTTTCCCGGTAATCCGTATTTGTC (site GTTAGAACTGG)” are the same in “recombinant UMI read abundance (log10)” value: 0 for the first, 0 for the second.

Going from “GTTAGAACATGGACCGGTTTTCCCGGTAATCCGTATTTGTC (site GTTAGAACTGT)” to “GTTAGAGCATGGACCGGTTTTCCCGGTAATCCGTATTTGAC (site GTTAGAGCTGT)”, the “recombinant UMI read abundance (log10)” value rises from 0.013 to 2.46.

“GTTAGATCATGGACCGGTTTTCCCGGTAATCCGTATTTGGC (site GTTAGAACTGC)” and “GTTAGATCATGGACCGGTTTTCCCGGTAATCCGTATTTGGC (site GTTAGACCTGC)” are the same in “recombinant UMI read abundance (log10)” value: 0 for the first, 0 for the second.

First: GTTAGATCATGGACCGGTTTTCCCGGTAATCCGTATTTGGC (site GTTAGAGCTGC)
Second: GTTAGATCATGGACCGGTTTTCCCGGTAATCCGTATTTGGC (site GTTAGATCTGC)
The “recombinant UMI read abundance (log10)” value of the first is lower: 0 for the first, 1.92 for the second.

“GTTATAACATGGACCGGTTTTCCCGGTAATCCGTATTTGGC (site GTTAAAACTGC)” and “GTTATAACATGGACCGGTTTTCCCGGTAATCCGTATTTGGC (site GTTACAACTGC)” are the same in “recombinant UMI read abundance (log10)” value: 0 for the first, 0 for the second.

First: GTTATAACATGGACCGGTTTTCCCGGTAATCCGTATTTGGC (site GTTAGAACTGC)
Second: GTTATAACATGGACCGGTTTTCCCGGTAATCCGTATTTGGC (site GTTATAACTGC)
The “recombinant UMI read abundance (log10)” value of the first is lower: 0 for the first, 1.28 for the second.

Going from “GTTATTGCATGGACCGGTTTTCCCGGTAATCCGTATTTGAT (site GTTATTGCTAT)” to “GTTCCAGCATGGACCGGTTTTCCCGGTAATCCGTATTTGCA (site GTTCAAGCTTG)”, the “recombinant UMI read abundance (log10)” value falls from 1.79 to 0.

First: GTTCCAGCATGGACCGGTTTTCCCGGTAATCCGTATTTGCA (site GTTCCAGCTTG)
Second: GTTCCAGCATGGACCGGTTTTCCCGGTAATCCGTATTTGCA (site GTTCGAGCTTG)
The “recombinant UMI read abundance (log10)” value of the first is higher: 1.64 for the first, 0 for the second.

Going from “GTTCCAGCATGGACCGGTTTTCCCGGTAATCCGTATTTGCA (site GTTCTAGCTTG)” to “GTTCCAGCATGGACCGGTTTTCCCGGTAATCCGTATTTGCT (site GTTCCAGCTAG)”, the “recombinant UMI read abundance (log10)” value rises from 0 to 1.06.

First: GTTCGAACATGGACCGGTTTTCCCGGTAATCCGTATTTGCA (site GTTCGAACTTG)
Second: GTTCGAACATGGACCGGTTTTCCCGGTAATCCGTATTTGCA (site GTTCGACCTTG)
The “recombinant UMI read abundance (log10)” value of the first is higher: 0.418 for the first, 0 for the second.

Compared with “GTTCGAACATGGACCGGTTTTCCCGGTAATCCGTATTTGCA (site GTTCGAGCTTG)”, “GTTCGAACATGGACCGGTTTTCCCGGTAATCCGTATTTGCA (site GTTCGATCTTG)” is higher in “recombinant UMI read abundance (log10)” value: 0.00306 for the first, 0.448 for the second.

“GTTCGACCATGGACCGGTTTTCCCGGTAATCCGTATTTGCA (site GTTCGAACTTG)” and “GTTCGACCATGGACCGGTTTTCCCGGTAATCCGTATTTGCA (site GTTCGACCTTG)” are the same in “recombinant UMI read abundance (log10)” value: 0 for the first, 0 for the second.

“GTTCGACCATGGACCGGTTTTCCCGGTAATCCGTATTTGCA (site GTTCGAGCTTG)” and “GTTCGACCATGGACCGGTTTTCCCGGTAATCCGTATTTGCA (site GTTCGATCTTG)” are the same in “recombinant UMI read abundance (log10)” value: 0 for the first, 0 for the second.

Compared with “GTTCGCGCATGGACCGGTTTTCCCGGTAATCCGTATTTGCA (site GTTCGAGCTTG)”, “GTTCGCGCATGGACCGGTTTTCCCGGTAATCCGTATTTGCA (site GTTCGCGCTTG)” is higher in “recombinant UMI read abundance (log10)” value: 0.394 for the first, 2.03 for the second.

“GTTCGCGCATGGACCGGTTTTCCCGGTAATCCGTATTTGCA (site GTTCGGGCTTG)” and “GTTCGCGCATGGACCGGTTTTCCCGGTAATCCGTATTTGCA (site GTTCGTGCTTG)” are within 0.2 log units of each other in “recombinant UMI read abundance (log10)” value: 0 for the first, 0.00559 for the second.

Compared with “GTTCGGGCATGGACCGGTTTTCCCGGTAATCCGTATTTGCA (site GTTCGAGCTTG)”, “GTTCGGGCATGGACCGGTTTTCCCGGTAATCCGTATTTGCA (site GTTCGCGCTTG)” is lower in “recombinant UMI read abundance (log10)” value: 1.27 for the first, 0 for the second.

First: GTTCGGGCATGGACCGGTTTTCCCGGTAATCCGTATTTGCA (site GTTCGGGCTTG)
Second: GTTCGGGCATGGACCGGTTTTCCCGGTAATCCGTATTTGCA (site GTTCGTGCTTG)
The “recombinant UMI read abundance (log10)” value of the first is higher: 2.23 for the first, 0.33 for the second.

Compared with “GTTCGTACATGGACCGGTTTTCCCGGTAATCCGTATTTGAC (site GTTCGTACTGT)”, “GTTCGTACATGGACCGGTTTTCCCGGTAATCCGTATTTGGG (site GTTCGTACTCC)” is lower in “recombinant UMI read abundance (log10)” value: 1.54 for the first, 0.0129 for the second.

“GTTCTATCATGGACCGGTTTTCCCGGTAATCCGTATTTGGT (site GTTCTATCTAC)” and “GTTCTTCCATGGACCGGTTTTCCCGGTAATCCGTATTTGGT (site GTTATTCCTAC)” are within 0.2 log units of each other in “recombinant UMI read abundance (log10)” value: 0 for the first, 0.00339 for the second.

“GTTCTTCCATGGACCGGTTTTCCCGGTAATCCGTATTTGGT (site GTTCTTCCTAC)” and “GTTCTTCCATGGACCGGTTTTCCCGGTAATCCGTATTTGGT (site GTTGTTCCTAC)” are within 0.2 log units of each other in “recombinant UMI read abundance (log10)” value: 0.00538 for the first, 0.0119 for the second.

First: GTTCTTCCATGGACCGGTTTTCCCGGTAATCCGTATTTGGT (site GTTTTTCCTAC)
Second: GTTGAGACATGGACCGGTTTTCCCGGTAATCCGTATTTGGT (site ATTGAGACTAC)
The “recombinant UMI read abundance (log10)” value of the first is lower: 0 for the first, 0.953 for the second.

“GTTGAGACATGGACCGGTTTTCCCGGTAATCCGTATTTGGT (site CTTGAGACTAC)” and “GTTGAGACATGGACCGGTTTTCCCGGTAATCCGTATTTGGT (site GTTGAGACTAC)” are within 0.2 log units of each other in “recombinant UMI read abundance (log10)” value: 0.883 for the first, 0.775 for the second.

First: GTTGAGACATGGACCGGTTTTCCCGGTAATCCGTATTTGGT (site TTTGAGACTAC)
Second: GTTGATGCATGGACCGGTTTTCCCGGTAATCCGTATTTGAC (site GTTGATGCTGT)
The “recombinant UMI read abundance (log10)” value of the first is lower: 0.683 for the first, 2.12 for the second.

First: GTTGCGTCATGGACCGGTTTTCCCGGTAATCCGTATTTGGC (site GTTGCGTCTGC)
Second: GTTGCGTCATGGACCGGTTTTCCCGGTAATCCGTATTTGGT (site GTTGCGTCTAC)
The “recombinant UMI read abundance (log10)” value of the first is higher: 2.41 for the first, 0.923 for the second.

First: GTTGTATCATGGACCGGTTTTCCCGGTAATCCGTATTTGAC (site CTAGTATCTGT)
Second: GTTGTATCATGGACCGGTTTTCCCGGTAATCCGTATTTGAC (site GTTGTATCTGT)
The “recombinant UMI read abundance (log10)” value of the first is lower: 1.45 for the first, 2.18 for the second.

“GTTGTCCCATGGACCGGTTTTCCCGGTAATCCGTATTTGGT (site GTTGTACCTAC)” and “GTTGTCCCATGGACCGGTTTTCCCGGTAATCCGTATTTGGT (site GTTGTCCCTAC)” are within 0.2 log units of each other in “recombinant UMI read abundance (log10)” value: 0.00965 for the first, 0.0143 for the second.

“GTTGTCCCATGGACCGGTTTTCCCGGTAATCCGTATTTGGT (site GTTGTGCCTAC)” and “GTTGTCCCATGGACCGGTTTTCCCGGTAATCCGTATTTGGT (site GTTGTTCCTAC)” are within 0.2 log units of each other in “recombinant UMI read abundance (log10)” value: 0.0145 for the first, 0 for the second.

“GTTGTCGCATGGACCGGTTTTCCCGGTAATCCGTATTTGCG (site GTAGTCGCTCG)” and “GTTGTCGCATGGACCGGTTTTCCCGGTAATCCGTATTTGCG (site GTCGTCGCTCG)” are within 0.2 log units of each other in “recombinant UMI read abundance (log10)” value: 0.0153 for the first, 0.00886 for the second.

Going from “GTTGTCGCATGGACCGGTTTTCCCGGTAATCCGTATTTGCG (site GTGGTCGCTCG)” to “GTTGTCGCATGGACCGGTTTTCCCGGTAATCCGTATTTGCG (site GTTGTCGCTCG)”, the “recombinant UMI read abundance (log10)” value rises from 0.009 to 0.974.

For “GTTGTTACATGGACCGGTTTTCCCGGTAATCCGTATTTGGT (site GTTGTTACTAC)”, the “recombinant UMI read abundance (log10)” value was 1.07.
